Data as given in patent publication US5912356A, “Antiviral nucleoside analogues containing a substituted benzimidazole base attached to a carbocyclic ring” (Glaxo Wellcome Inc., priority 1997, dated 1999).

Legend:
[1] = system: Human cytomegalovirus (HCMV); test: Anti-HCMV plaque reduction assay in MRC5 cell monolayers; type: cell-based; details: Human betaherpesvirus 5, 50% inhibitory concentration, MRC5 cells (human embryonic lung)
Protocol: Human cytomegalovirus (HCMV) is assayed in monolayers of MRC5 cells (human embryonic lung) in multiwell trays. Activity of compounds is determined in the plaque reduction assay, in which a cell monolayer is infected with a suspension of HCMV. A range of concentrations of the compound to be tested (of known molarity) is then incorporated into the carboxymethyl cellulose overlay. Plaque numbers of each concentration are expressed as percentage of the control and a dose-response curve is drawn. From this curve the 50% inhibitory concentration (IC50) is estimated.

HBV = test: Anti-HBV assay: HBV DNA in supernatants of HBV-producing cells (HepG2 2.2.15, P5A), immunoaffinity capture, PCR and hybrid-capture detection; type: cell-based, hepatitis B virus (HBV); details: 50 percent decrease in HBV DNA, HepG2 2.2.15, P5A cell line, two values per compound, ganciclovir (control): average of 10 values
Protocol: Anti-HBV activity of compounds of formula (I) and (I-1) was determined with a high-capacity assay for assessing efficacy. Supernatants from growing HBV-producing cells (HepG2 2.2.15, P5A cell line) in 96-well plates are applied to microtiter plate wells which have been coated with a specific monoclonal antibody to HBV surface antigen (HBsAg). Virus particles present in the supernatants bind to the antibody and remain immobilized while other debris is removed by washing. These virus particles are then denatured to release HBV DNA strands which are subsequently amplified by the polymerase chain reaction and detected with a calorimetric hybrid-capture assay. Quantitation is achieved through fitting of a standard curve to dilutions of a cell supernatant with known HBV DNA content. By comparing HBV DNA levels of untreated control cell supernatants with supernatants containing a compound of formula (I) or (I-1), a measure of anti-HBV effectiveness is obtained.
b. Immunoaffinity Capture of HBV:
HBV producer cells, 2500 cells/well, were seeded in 96-well culture dishes in RPMI/10% fetal bovine serum/2 mM glutamine (RPMI/10/2:). Media were replenished on days 1, 3, 5, and 7 with dilutions of a compound of formula (1) or (I-1) in RPMI/10/2 to a final volume of 150 uL. Fifty uL of mouse monoclonal anti-HBsAG antibody (10 ug/mL in PBS) were added to each well of a round-bottom microtiter plate. After incubation overnight at 4° C., the solutions were aspirated and replaced with 100 uL of 0.1% BSA in PBS. Samples were incubated for 2 hours at 37° C. and washed three times with PB S/0/01% Tween-20 (PBS/T) using a Nunc Washer. Ten uL of 0.035% Tween 20 in PBS were then added to all wells by Pro/Pette. Cell supernatants (25 uL) containing extracellular virion DNA were transferred into wells by Pro/Pette; the final Tween concentration is 0.01%. Twenty-five uL HBV standard media dilutions in RPMI/10/2 were added to 2 rows of wells to serve as an internal standard curve for quantitation, and the plates were sealed and incubated at 4° C. overnight. Samples were washed 5 times with PBS/T and 2 times with PBS, aspirating the last wash. Next, 25 uL of 0.09N NaOH/0.01% NP40 were added to each well by Pro/Pette, and the sample wells were sealed and incubated at 37° C. for 60 minutes. Samples were then neutralized with 25 uL of 0.09N HCl/100 mM tris (pH 8.3).
c. Polymerase Chain Reaction (PCR):
Polymerase chain reaction (Saiki, R. K. et al., Science, 239 (4839) 487-91 (1988)) was carried out on 5 uL samples, using a Perkin Elmer PCR kit. PCR is performed in "MicroAmp tubes" in a final volume of 25 uL. Primers were chosen from conserved regions in the HBV genome, as determined by alignment of several sequences. One primer is biotinylated at the 5-prime end to facilitate hybrid-capture detection of the PCR products. All primers were purchased from Synthecell Corp., Rockville, Md. 20850.
d. Hybrid-Capture Detection of PCR Products:
PCR products were detected with horse radish peroxidase-labeled oligonucleotide probes (Synthecell Corp., Rockville, Md. 20850), which hybridize to biotinylated strands of denatured PCR products directly in streptavidin-coated microtiter plate wells, using essentially the method of Holodiniy, M. et al., BioTechniques, 12 (1) 37-39 (1992). Modifications included the use of […] PCR reaction volumes and sodium hydroxide denaturation instead of heat. Simultaneous binding of the biotin moiety to the plate-bound streptavidin during the hybridization serves to "capture" the hybrids. Unbound labeled probes were washed away before calorimetric determination of the bound (hybridized) horse radish peroxidase. Quantities of HBV DNA present in the original samples were calculated by comparison with standards. These values were then compared to those from untreated cell cultures to determine the extent of anti-HBV activity.
IC50 (the median inhibitory concentration) is the amount of compound which produces a 50 percent decrease in HBV DNA. […]

[2] = Hepatitis B virus, HepG2 2.2.15, approximate IC50

OC[C@@H]1C[C@H](n2c(Br)nc3cc(Cl)c(Cl)cc32)[C@@H](O)[C@H]1O (relative stereo) [Ex. 4, (±)-(1R*, 2S*, 3S*, 5S*)-5-(2-Bromo-5,6-dichloro-1H-benzimidazol-1yl)-3-(hydroxymethyl)-1,2-cyclopentanediol]
IC50 [1]: 1900 nM

OC[C@@H]1C[C@H](n2c(NC3CC3)nc3cc(Cl)c(Cl)cc32)[C@@H](O)[C@H]1O [Ex. 32, (1R, 2S, 3S, 5S)-5-[5,6-Dichloro-2-(cyclopropylamino)-1H-benzimidazol-1-yl]-3-(hydroxymethyl)-1,2-cyclopentanediol]
IC50 (HBV; [2]): 1300 nM | IC50 (HBV; approximate IC50): 790 nM

CC(C)Nc1nc2cc(Cl)c(Cl)cc2n1[C@H]1C[C@@H](CO)[C@H](O)[C@@H]1O [Ex. 33, (1R, 2S, 3S, 5S)-5-[5,6-Dichloro-2-(isopropylamino)-1H-benzimidazol-1-yl]-3-(hydroxymethyl)-1,2-cyclopentanediol]
IC50 (HBV; [2]): 440 nM | IC50 (HBV; approximate IC50): 500 nM

CC(C)(C)Nc1nc2cc(Cl)c(Cl)cc2n1[C@H]1C[C@@H](CO)[C@H](O)[C@@H]1O [Ex. 40, (1R, 2S, 3S, 5S)-5-[2-(tert-Butylamino)-5,6-dichloro-1H-benzimidazol-1-yl]-3-(hydroxymethyl)-1,2-cyclopentanediol]
IC50 (HBV; approximate IC50): 1400 nM

Nc1nc(O)c2ncn(COC(CO)CO)c2n1 [ganciclovir, reference compound]
IC50 (HBV; [2]): 1100 nM
